Earlier results on 2 compounds are cited in US20060135540A1, “PPAR active compounds” (priority 2004, published 2006).

One series concerns the target T1, PPARδ (Homo sapiens, UniProt Q03181).
T1 sequence (Q03181 1-441): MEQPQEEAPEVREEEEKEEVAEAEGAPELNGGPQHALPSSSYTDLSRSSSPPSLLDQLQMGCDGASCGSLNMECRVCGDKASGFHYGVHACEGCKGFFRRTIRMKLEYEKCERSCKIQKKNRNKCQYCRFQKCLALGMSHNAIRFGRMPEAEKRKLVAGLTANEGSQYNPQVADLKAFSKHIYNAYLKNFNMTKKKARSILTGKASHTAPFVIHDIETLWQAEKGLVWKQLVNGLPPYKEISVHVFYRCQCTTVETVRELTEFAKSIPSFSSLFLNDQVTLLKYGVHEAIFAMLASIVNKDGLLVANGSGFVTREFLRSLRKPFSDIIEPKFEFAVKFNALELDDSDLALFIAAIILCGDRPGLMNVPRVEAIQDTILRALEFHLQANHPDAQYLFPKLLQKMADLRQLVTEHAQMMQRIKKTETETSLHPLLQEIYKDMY

A further series concerns the target T2, murine PPARα (Mus musculus, UniProt P23204).
T2 sequence (P23204 1-468): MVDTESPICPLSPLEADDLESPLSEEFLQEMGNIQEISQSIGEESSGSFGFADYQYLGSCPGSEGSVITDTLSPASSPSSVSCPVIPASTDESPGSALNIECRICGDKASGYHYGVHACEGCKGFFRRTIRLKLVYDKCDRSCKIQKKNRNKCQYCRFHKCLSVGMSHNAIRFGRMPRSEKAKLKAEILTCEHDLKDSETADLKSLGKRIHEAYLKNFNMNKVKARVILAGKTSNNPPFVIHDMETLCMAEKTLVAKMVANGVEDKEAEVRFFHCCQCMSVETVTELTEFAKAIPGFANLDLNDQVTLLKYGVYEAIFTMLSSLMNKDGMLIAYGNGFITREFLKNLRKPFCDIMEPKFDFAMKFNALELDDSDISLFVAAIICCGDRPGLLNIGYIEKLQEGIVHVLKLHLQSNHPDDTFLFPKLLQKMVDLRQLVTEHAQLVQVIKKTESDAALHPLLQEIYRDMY

The conditions of series [1]: patients, large prospective trial.

Take `CCCc1c(OCCCOc2ccc(OCC(=O)O)cc2)ccc(C(C)=O)c1O` [Compound L-165041]: the “agonist selectivity for PPARδ over PPARγ” value at PPARδ is recorded as “approximately 30 fold”. Further, the “activity on murine PPARα” value at murine PPARα is “inactive”. In the case of `Cc1ccc(C)c(OCCCC(C)(C)C(=O)O)c1` [gemfibrozil], in series [1], the “reduction in cardiovascular events or death” value is listed as 22%.
